Source: paper PMC8121805, “Discovery of first-in-class inhibitors of ASH1L histone methyltransferase with anti-leukemic activity” (Nature Communications, 2021)
Where “and” joins values, the source holds several entries; their conditions need not be identical. Equal entries are not always repeated.

What was measured:
Format in all cases: cell-based, human
[1] = test system: K562 cells; experiment: MTT cell viability assay
Protocol: (§1) Human leukemia cells K562, MV4;11 and RS4;11 (purchased from ATCC) and KOPN8, MOLM13 (purchased from DSMZ) were cultured in RPMI 1640 (Invitrogen) supplemented with 10% heat inactivated (h.i.) FBS and 1% penicillin/streptomycin (Invitrogen). SET2 cells (purchased from DSMZ) were cultured in RPMI 1640 supplemented with 20% h.i. FBS and 1% penicillin/streptomycin. Cells were plated at 1 × 10^5 to 2 × 10^5 cells/mL depending on cell line and treated with 0.25% DMSO or varying concentrations of compounds and incubated at 37 °C, 5% CO2 incubator for 7 days. Media was changed on day 3 or 4 and compounds were resupplied. […] Cell suspensions (100 μL) were transferred to the 96-well plates for each sample in quadruplicate at the time of media change. At day 7, 10 µL of MTT reagent (M6494, Molecular Probes™) was added to each well of the 96 well plate and incubated at 37 °C for 4 h. The formazan was then solubilized by adding 100 µL acidified 10% SDS solution and incubated at 37 °C overnight. Plates were read for absorbance at 570 nm using a PHERAstar BMG microplate reader. The experiments were performed two times in quadruplicates with calculation of mean and SD for each condition. Data were analyzed in Prism 8.0.0 to obtain GI50 values.
(§2) Supplementary Figure 7. […] (a)
(§3) Titration curves from the MTT cell viability assay performed after 4, 7, and 11 (or 10) days of
(§4) Titration curves from the MTT cell viability assay performed after 7 days of treatment of KOPN8 ,
(§5) MOLM13 and MV4;11 cell lines harboring MLL1 translocation (MLL1-r) or K562 cell line (non-
(§6) Representative graphs are shown
(§7) from two independent MTT experiments performed for each cell line. GI50 values correspond to […]

[2] = test system: KOPN8 cells; experiment: MTT cell viability assay; conditions: MTT, 7 days
Protocol: as §1, §2, §3, §4, §5, §6, §7

[3] = test system: RS4;11 cells; experiment: MTT cell viability assay; conditions: 7 days
Protocol: as §1

[4] = test system: SET2 cells; experiment: MTT cell viability assay
Protocol: as §1

[5] = test system: MV4;11 cells; experiment: Annexin V apoptosis assay (flow cytometry); conditions: for MV4;11 % Annexin V/PI+ cells: 7 days
[6] = test system: MLL fusion target genes in MOLM13 cells; experiment: Real time qRT-PCR gene expression; parameters: key to MEIS1 expression / FLT3 expression / HOXA9 expression / MNDA expression / MEF2C expression / DLX2 expression: fold change vs DMSO-treated cells, normalized to HPRT1 (comparative Ct); conditions: for DLX2 expression / FLT3 expression / HOXA9 expression / MEF2C expression / MEIS1 expression / MNDA expression: MOLM13, 7 days, normalized to HPRT1, referenced to DMSO
Protocol: (§8) 0.5 × 10^6 – 3 × 10^6 cells from each sample were collected at days 7 or 8 of treatment, centrifuged at 211 xg, and RNA was extracted according to the RNeasy Mini Kit protocol (74106, Qiagen). Extracted RNA was quantified using Nanodrop 2000 UV-Vis spectrophotometer and 0.5–1 µg of total RNA was reverse transcribed into cDNA using High-Capacity cDNA Reverse Transcription Kit (4368814, Applied Biosystems™) according to the manufacturer’s protocol. Real-time PCR was performed using the CFX96 Touch Real-Time PCR Detection System (Bio-Rad). TaqMan Gene Expression Master Mix and TaqMan Gene Expression Assays were purchased from Applied Biosystems. Relative quantification of each gene transcript was carried out using the comparative Ct method as described in the Applied Biosystems User Bulletin no. 2. TaqMan Gene Expression Assays were used: HPRT1: Hs02800695_m1, DLX2: Hs00269993_m1, FLT3: Hs00174690_m1, HOXA9: Hs00365956_m1, MEF2C: Hs00231149_m1, MEIS1: Hs00180020_m1, MNDA: Hs00935905_m1.
(§9) Supplementary Figure 10. Effect of AS-nc on gene expression in MLL leukemia cells. (a, b) Quantitative RT-PCR performed in MOLM13 cells (a) or MV4;11 cells (b) after 7 days of treatment with AS-nc. Gene expression was normalized to HPRT1 and referenced to the DMSO treated cells. Representative data from two independent experiments, each performed in triplicates, […]

[7] = test system: MLL fusion target genes in MV4;11 cells; experiment: Real time qRT-PCR gene expression; conditions: MV4;11, 7 days, 3 uM; normalized to HPRT1, referenced to DMSO
Protocol: as §8, §9

[8] = MTT, 7 days, log[compound] -4.92082
[9] = MTT, 7 days, log[compound] -5.22185
[10] = MTT, 7 days, log[compound] -5.52288
[11] = MTT, 7 days, log[compound] -5.82391
[12] = MTT, 7 days, log[compound] -6.12494
[13] = MTT, 7 days, log[compound] -6.42597
[14] = MTT, 7 days, log[compound] -6.727
[15] = leukemia cells without MLL1 translocations

CN1CC(C(=O)NCc2ccc3c(-c4cccc(C(N)=S)c4)cn(C4CCN(S(=O)(=O)C(F)(F)F)CC4)c3c2)C1 [AS-99]
GI50 ([1]; Homo sapiens, 168 h, K562 (non MLL1-r), MTT, 7 days): ~10 µM | % activity K562 [1, 8]: 34.51% and 35.23% and 31.55% and 35.55% | % activity K562 [1, 9]: 83.83% and 82.23% and 83.51% and 86.83% | % activity K562 [1, 10]: 95.95% and 103.51% and 103.55% and 93.67% | % activity K562 [1, 11]: 96.63% and 103.59% and 103.23% and 96.55% | % activity K562 [1, 12]: 84.15% and 92.83% and 97.87% and 96.55% | % activity K562 [1, 13]: 86.31% and 85.15% and 89.55% and 92.55% | % activity K562 [1, 14]: 85.67% and 82.35% and 87.23% and 83.91% | effect on growth/proliferation of K562 cells [1, 15]: no or limited effects at 10 µM or higher concentrations | GI50 ([2]; Homo sapiens, KOPN-8, 168 h, KOPN8 (MLL1-r)): 2.9 ± 0.3 µM | % activity KOPN-8 ([2]; log[compound] -4.92082): 5.251% and 4.98% (2×) and 5.115% | % activity KOPN-8 ([2]; log[compound] -5.22185): 1.863% and 1.728% and 2.134% | % activity KOPN-8 ([2]; log[compound] -5.52288): 50.2371% and 54.1667% and 51.0501% and 53.0827% | % activity KOPN-8 ([2]; log[compound] -5.82391): 80.5894% and 71.1043% and 76.5244% and 75.7114% | % activity KOPN-8 ([2]; log[compound] -6.12494): 90.8875% and 88.855% and 90.6165% and 83.977% | % activity KOPN-8 ([2]; log[compound] -6.42597): 97.1206% and 99.8306% and 104.844% and 96.4431% | % activity KOPN-8 ([2]; log[compound] -6.727): 96.0366% and 101.457% and 104.844% and 97.6626% | % activity RS4;11 ([3]; log[compound] -4.92082): 2.655% and 2.343% and 2.187% | % activity RS4;11 ([3]; log[compound] -5.22185): 2.03% and 1.718% and 1.874% and 2.655% | % activity RS4;11 ([3]; log[compound] -5.52288): 64.3499% and 67.786% and 71.3784% | % activity RS4;11 ([3]; log[compound] -5.82391): 99.4924% and 89.8087% and 86.9973% and 90.4334% | % activity RS4;11 ([3]; log[compound] -6.12494): 82.4678% and 84.9668% and 84.4982% and 89.3401% | % activity RS4;11 ([3]; log[compound] -6.42597): 93.2448% and 101.679% and 103.397% | GI50 ([3]; Homo sapiens, 168 h, RS4;11 (MLL1-r)): 3.4 ± 0.1 µM | GI50 ([4]; Homo sapiens, SET-2, 168 h, SET2 (non MLL1-r), MTT, 7 days): > 12 µM | % activity SET2 [4, 8]: 96.0299% and 95.2049% and 87.6257% and 88.1928% | % activity SET2 [4, 9]: 99.0204% and 97.9376% and 92.5754% and 93.5035% | % activity SET2 [4, 10]: 97.5767% and 104.589% and 99.7938% and 98.0407% | % activity SET2 [4, 11]: 91.6473% and 94.4831% and 88.9662% and 87.9866% | % activity SET2 [4, 12]: 83.7071% and 89.6365% and 81.1807% and 83.8618% | % activity SET2 [4, 13]: 83.5525% and 88.76% and 84.5321% and 85.1508% | % activity SET2 [4, 14]: 86.1304% and 85.9242% and 90.513% and 87.1101% | effect on proliferation of SET2 cells [4, 15]: no or limited effects at 10 µM or higher concentrations | MV4;11 % Annexin V/PI+ cells ([5]; 3 uM): 5.84% and 5.81% and 5.56% | MV4;11 % Annexin V/PI+ cells ([5]; 4.5 uM): 21.9% and 12.8% | apoptosis in the MLL leukemia cells (Annexin V positive cells) ([5]; MV4;11 and KOPN8): induced apoptosis | DLX2 expression ([6]; 2 uM): 0.56 and 0.75 and 0.61 | FLT3 expression ([6]; 2 uM): 0.69 and 0.97 and 0.78 | HOXA9 expression ([6]; 2 uM): 0.72 and 0.91 and 0.9 | MEF2C expression ([6]; 2 uM): 0.67 and 0.89 and 0.83 | MEIS1 expression ([6]; 2 uM): 0.79 and 0.98 and 0.9 | MNDA expression ([6]; 2 uM): 1.83 and 1.84 and 1.74 | DLX2 expression ([6]; 4 uM): 0.44 and 0.5 and 0.58 | FLT3 expression ([6]; 4 uM): 0.67 and 0.76 and 0.61 | HOXA9 expression ([6]; 4 uM): 0.76 and 0.94 and 0.79 | MEF2C expression ([6]; 4 uM): 0.59 and 0.77 and 0.68 | MEIS1 expression ([6]; 4 uM): 0.89 and 0.77 and 0.75 | MNDA expression ([6]; 4 uM): 2.92 and 2.39 and 3.74 | DLX2 expression ([6]; 6 uM): 0.53 and 0.54 and 0.7 | FLT3 expression ([6]; 6 uM): 0.53 and 0.65 and 0.5 | HOXA9 expression ([6]; 6 uM): 0.69 and 0.9 and 0.7 | MEF2C expression ([6]; 6 uM): 0.48 and 0.65 and 0.64 | MEIS1 expression ([6]; 6 uM): 0.71 and 0.74 and 0.69 | MNDA expression ([6]; 6 uM): 3.99 and 3.93 and 2.86 | expression level of the MNDA differentiation marker ([6]; MOLM13 and MV4;11): substantial increase | expression of MLL fusion target genes (MEF2C, DLX2, FLT3, HOXA9) ([6]; MOLM13 and MV4;11): dose-dependent downregulation | DLX2 expression [7]: 0.19 and 0.27 and 0.29 | FLT3 expression [7]: 0.7 and 0.8 and 0.73 | HOXA9 expression [7]: 0.46 and 0.64 and 0.75 | MEF2C expression [7]: 0.64 and 0.74 and 0.63 | MEIS1 expression [7]: 0.76 and 0.82 and 1.02 | MNDA expression [7]: 1.48 and 1.84 and 1.74
